Consider 11 molecules from patent US7601716B2, “Pyridopyrazines and derivatives thereof as ALK and c-Met inhibitors” (Cephalon, Inc., priority 2006, dated 2009).

pIC50: −log10 of the molar value.

Series [1] concerns the target T1, c-Met (cytoplasmic domain) (Homo sapiens, UniProt P08581).
T1 construct: Reactions were initiated with 30 ng/mL c-Met (cytoplasmic domain, Invitrogen Corporation #PV3143); purchased Invitrogen Corporation PV3143
The experiment in a line: c-Met Kinase Assay (ELISA/TRF, PLC-γ substrate). It counts as biochemical. The settings on record: 3 μM ATP (Km level); read-out: c-Met Kinase Inhibition (IC50). A digest of the protocol: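 Readout is TRF of europium anti-phosphotyrosine (PT66) bound to GST–PLC-γ substrate coated at 10 μg/mL, after a 15 min, 37 °C reaction started with 30 ng/mL c-Met cytoplasmic domain. Percent inhibition plotted against log compound concentration and fitted (variable slope) for IC50.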
For orientation: An ELISA detects its analyte on a solid surface through an enzyme-linked reagent.

In series [2] the target is T2, c-Met (phospho-c-Met) in A549 cells (Homo sapiens, UniProt P08581).
T2 construct: endogenous in cells; host or cells: HT29, A549 (HGF-stimulated), GTL-16
The experiment in a line: c-Met Cellular Activity/Autophosphorylation Assay, A549 cells (HGF stimulated). The settings on record: 50 ng/mL HGF; for inhibition at 1 µM: 1 μM compound, read-out: c-Met autophosphorylation inhibition score, A549 Cells (1 μM); for inhibition at 3 µM: 3 μM compound, read-out: c-Met autophosphorylation inhibition score, A549 Cells (3 μM). It counts as cell-based. The protocol: (§1) HT29 and GTL-16 cells were serum starved for one hour in media containing 0.05% BSA and varying concentrations of Example compounds (1-10 μM). A549 cells were serum starved overnight in media containing 0.05% BSA then treated for one hour with Example compounds followed by a 15 minute stimulation with 50 ng/mL HGF (Peprotech, Rocky Hill, N.J.), respectively. Samples were resolved by electrophoresis on a 3-8% Tris-Acetate gel (40 ma/gel) and then transferred to a nitrocellulose membrane. Membranes were blocked for one hour at room temperature in Odyssey Blocking Buffer (Licor #927-40000) diluted 1:1 with 1×TBS. Membranes were then co-incubated overnight at 4° C. with primary antibodies [total Met (Cell Signaling, #3127) and Phospho-Met (Biosource, #44-888G) 1:1000 each in Odyssey Blocking Buffer diluted 1:1 with 1×TBS-T 0.05%]. The next day, membranes were washed and co-incubated with secondary antibodies [Goat anti mouse IRDye800 (Rockland, #610-132-121) and Goat anti rabbit Alexa fluor 700 (Molecular Probes, #A21038) 1:10,000] in Odyssey Blocking Buffer diluted 1:1 with 1×TBS-T 0.05% for one hour at room temperature protected from light. Blots were then washed and read on the Odyssey Infrared Imager. Total c-Met signal was visualized at 800 nm detection and phospho-c-Met signal was visualized at 700 nm detection.

The target of series [3] is T3, c-Met (phospho-c-Met) in HT29 cells (Homo sapiens, UniProt P08581).
T3 construct: endogenous in cells; host or cells: HT29, A549 (HGF-stimulated), GTL-16
T3 sequence (P08581 25-1390): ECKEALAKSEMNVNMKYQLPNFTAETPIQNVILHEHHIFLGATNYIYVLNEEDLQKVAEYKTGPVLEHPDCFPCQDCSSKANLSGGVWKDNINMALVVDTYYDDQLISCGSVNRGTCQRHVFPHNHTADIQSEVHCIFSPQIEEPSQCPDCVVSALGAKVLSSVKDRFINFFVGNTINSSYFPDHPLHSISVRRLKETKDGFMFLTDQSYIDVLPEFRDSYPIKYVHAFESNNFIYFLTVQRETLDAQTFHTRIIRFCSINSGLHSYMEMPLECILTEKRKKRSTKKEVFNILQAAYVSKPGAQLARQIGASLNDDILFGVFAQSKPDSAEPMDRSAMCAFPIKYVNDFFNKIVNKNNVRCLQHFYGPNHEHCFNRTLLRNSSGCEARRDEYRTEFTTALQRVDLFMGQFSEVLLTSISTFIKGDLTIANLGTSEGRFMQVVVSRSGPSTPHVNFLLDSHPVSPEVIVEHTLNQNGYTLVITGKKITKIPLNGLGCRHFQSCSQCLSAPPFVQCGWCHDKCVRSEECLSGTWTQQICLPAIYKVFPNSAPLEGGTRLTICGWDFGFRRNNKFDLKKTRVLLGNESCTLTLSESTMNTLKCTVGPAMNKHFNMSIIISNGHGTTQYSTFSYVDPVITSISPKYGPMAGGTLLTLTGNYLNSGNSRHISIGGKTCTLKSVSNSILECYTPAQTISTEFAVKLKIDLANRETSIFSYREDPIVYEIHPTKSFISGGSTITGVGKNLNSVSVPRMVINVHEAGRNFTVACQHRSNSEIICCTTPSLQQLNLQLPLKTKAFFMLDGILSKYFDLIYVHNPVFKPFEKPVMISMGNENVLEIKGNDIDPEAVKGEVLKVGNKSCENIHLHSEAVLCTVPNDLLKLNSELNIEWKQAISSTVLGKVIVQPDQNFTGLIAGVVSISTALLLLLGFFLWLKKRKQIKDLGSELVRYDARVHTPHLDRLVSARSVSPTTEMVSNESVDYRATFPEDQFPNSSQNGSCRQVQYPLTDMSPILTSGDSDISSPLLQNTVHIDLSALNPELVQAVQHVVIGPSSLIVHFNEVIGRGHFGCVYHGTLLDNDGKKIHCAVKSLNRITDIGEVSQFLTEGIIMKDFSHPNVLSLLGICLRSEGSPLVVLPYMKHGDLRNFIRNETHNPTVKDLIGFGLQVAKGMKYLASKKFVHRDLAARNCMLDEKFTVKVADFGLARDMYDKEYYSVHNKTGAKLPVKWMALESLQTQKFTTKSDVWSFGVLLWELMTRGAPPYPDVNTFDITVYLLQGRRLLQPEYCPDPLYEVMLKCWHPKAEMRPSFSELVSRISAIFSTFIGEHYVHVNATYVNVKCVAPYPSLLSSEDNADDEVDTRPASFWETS
The series can be described thus: c-Met Cellular Activity/Autophosphorylation Assay, HT29 cells. It counts as cell-based. The settings on record: for inhibition at 1 µM: HT-29, 1 μM compound, read-out: c-Met autophosphorylation inhibition score, HT29 Cells (1 μM); for inhibition at 3 µM: HT-29, 3 μM compound, read-out: c-Met autophosphorylation inhibition score, HT29 Cells (3 μM). The protocol:
as §1

Series [4] addresses baculovirus-expressed ALK (Homo sapiens, UniProt Q9UM73). The experiment in a line: ALK Kinase Assay (ELISA/TRF, PLC-γ substrate). Further: 1 µM ATP (Km level). It counts as biochemical. The settings on record: read-out: ALK Kinase Inhibition (IC50). In a few lines: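 ALK at 30 ng/ml phosphorylated plate-bound PLC-γ–GST fusion (coated from 10 μg/mL) during 15 minutes at 37° C. Product was detected with Eu-N1 PT66 anti-phosphotyrosine antibody and measured by time-resolved fluorescence.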

A further series deals with T4, NPM-ALK (Homo sapiens, UniProt Q9UM73).
T4 construct: a fusion protein consisting of nucleophosmin (NMP) and the intracellular domain of ALK; the other entry of the earlier key: NPM1 (P06748, Nucleophosmin)
T4 sequence (Q9UM73 with tags, fused parts or gaps): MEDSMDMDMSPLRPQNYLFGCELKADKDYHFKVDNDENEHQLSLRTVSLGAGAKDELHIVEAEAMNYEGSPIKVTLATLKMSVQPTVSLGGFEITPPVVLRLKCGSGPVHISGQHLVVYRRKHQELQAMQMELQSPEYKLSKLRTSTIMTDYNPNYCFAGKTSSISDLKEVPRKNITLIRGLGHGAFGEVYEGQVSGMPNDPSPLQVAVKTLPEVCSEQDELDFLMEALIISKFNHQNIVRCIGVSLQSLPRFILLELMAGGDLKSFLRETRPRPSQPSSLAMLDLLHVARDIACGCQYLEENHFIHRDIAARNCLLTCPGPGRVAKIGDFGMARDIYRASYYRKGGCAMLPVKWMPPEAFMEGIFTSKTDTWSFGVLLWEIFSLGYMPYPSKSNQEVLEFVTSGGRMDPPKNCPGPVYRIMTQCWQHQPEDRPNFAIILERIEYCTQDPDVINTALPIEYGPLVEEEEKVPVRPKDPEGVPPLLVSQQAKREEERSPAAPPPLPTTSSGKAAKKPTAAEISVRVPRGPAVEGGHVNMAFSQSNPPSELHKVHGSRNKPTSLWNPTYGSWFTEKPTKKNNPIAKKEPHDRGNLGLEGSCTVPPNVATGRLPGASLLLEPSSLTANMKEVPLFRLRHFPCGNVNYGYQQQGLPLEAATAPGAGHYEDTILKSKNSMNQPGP
The series can be described thus: ALK Cellular Assay (phospho-NPM-ALK immunoblot / ALK tyrosine phosphorylation ELISA). It counts as cell-based. The procedure:
Immunoblotting of phospho-NPM-ALK and total NPM-ALK from cell lysates was carried out according to the protocols provided by the antibody suppliers. In brief, after treatment of Example compounds, cells were lysed in Frak lysis buffer [10 mM Tris, pH 7.5, 1% Triton X-100, 50 mM sodium chloride, 20 mM sodium fluoride, 2 mM sodium pyrophosphate, 0.1% BSA, plus freshly prepared 1 mM activated sodium vanadate, 1 mM dithiothreitol (#165680050, ARCOS Organics, Geel, Belgium), and 1 mM PMSF (#837091, Boehringer Mannheim Biochemicals, Indianapolis, Ind.), protease inhibitors cocktail III (#539134-1Set, Calbiochem, 1:100 dilution)]. After brief sonication, the lysates were cleared by centrifugation, mixed with sample buffer and subjected to SDS-PAGE. Following transfer to membranes, the membranes were blotted with either rabbit phospho-NPM-ALK(Y664) (Cat^#3341) or ALK antibody (Cat^#3342) from Cell Signaling Technology (Beverly, Mass.), and then the HRP-conjugated goat anti-rabbit antibodies (Santa Cruz, Calif.) after washed in TBS/0.2% Tween-20. The protein bands were visualized with ECL Western Blotting detection reagents (RPN2106, Amersham Biosciences, Buckinghamshire, UK) and quantitated with gel-pro analyzer 3.1 software.
To measure ALK tyrosine phosphorylation in cells with an ELISA assay, fluoronunc plates (Cat^#437796, Nalge Nunc, Rochester, N.Y.) were pre-coated with goat anti-mouse IgG, and incubated with the capture mouse ALK antibody (Cat^#35-4300, Zymed, Seattle, Wash.) diluted 1:1000 in Superblock (Pierce, Rockford, Ill.). Following blocking, cell lysates were added to plates and incubated overnight at 4° C. Plates were incubated with the detecting antibody, anti-phospho-ALK (Y664) (Cell Signaling Technology), diluted at 1:2000, followed by incubation with goat anti-rabbit-IgG alkaline phosphatase to amplify the detection. Wells were exposed to the fluorogenic substrate 4-MeUP (#3368-04-5, Calbiochem) and the signal quantified using a CytoFluor® (series 4000) Fluorescence Multi-Well Plate Reader (Applied Biosystems, Foster City, Calif.).
(Immunoblotting shows a protein as a band on a membrane.)

T1 sequence (P08581 956-1390 limits assumed): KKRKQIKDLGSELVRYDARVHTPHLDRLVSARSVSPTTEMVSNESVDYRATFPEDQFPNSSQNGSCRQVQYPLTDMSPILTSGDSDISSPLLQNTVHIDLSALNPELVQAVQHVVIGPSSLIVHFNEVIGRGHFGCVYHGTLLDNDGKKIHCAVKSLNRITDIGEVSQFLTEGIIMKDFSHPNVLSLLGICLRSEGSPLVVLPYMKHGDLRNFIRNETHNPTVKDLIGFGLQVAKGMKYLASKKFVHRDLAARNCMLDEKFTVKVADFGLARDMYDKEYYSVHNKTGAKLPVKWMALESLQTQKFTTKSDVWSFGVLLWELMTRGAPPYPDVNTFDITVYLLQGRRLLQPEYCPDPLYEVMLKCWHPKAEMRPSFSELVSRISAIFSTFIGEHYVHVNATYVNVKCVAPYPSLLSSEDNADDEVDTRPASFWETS
Sequence of baculovirus-expressed ALK (Q9UM73 19-1620): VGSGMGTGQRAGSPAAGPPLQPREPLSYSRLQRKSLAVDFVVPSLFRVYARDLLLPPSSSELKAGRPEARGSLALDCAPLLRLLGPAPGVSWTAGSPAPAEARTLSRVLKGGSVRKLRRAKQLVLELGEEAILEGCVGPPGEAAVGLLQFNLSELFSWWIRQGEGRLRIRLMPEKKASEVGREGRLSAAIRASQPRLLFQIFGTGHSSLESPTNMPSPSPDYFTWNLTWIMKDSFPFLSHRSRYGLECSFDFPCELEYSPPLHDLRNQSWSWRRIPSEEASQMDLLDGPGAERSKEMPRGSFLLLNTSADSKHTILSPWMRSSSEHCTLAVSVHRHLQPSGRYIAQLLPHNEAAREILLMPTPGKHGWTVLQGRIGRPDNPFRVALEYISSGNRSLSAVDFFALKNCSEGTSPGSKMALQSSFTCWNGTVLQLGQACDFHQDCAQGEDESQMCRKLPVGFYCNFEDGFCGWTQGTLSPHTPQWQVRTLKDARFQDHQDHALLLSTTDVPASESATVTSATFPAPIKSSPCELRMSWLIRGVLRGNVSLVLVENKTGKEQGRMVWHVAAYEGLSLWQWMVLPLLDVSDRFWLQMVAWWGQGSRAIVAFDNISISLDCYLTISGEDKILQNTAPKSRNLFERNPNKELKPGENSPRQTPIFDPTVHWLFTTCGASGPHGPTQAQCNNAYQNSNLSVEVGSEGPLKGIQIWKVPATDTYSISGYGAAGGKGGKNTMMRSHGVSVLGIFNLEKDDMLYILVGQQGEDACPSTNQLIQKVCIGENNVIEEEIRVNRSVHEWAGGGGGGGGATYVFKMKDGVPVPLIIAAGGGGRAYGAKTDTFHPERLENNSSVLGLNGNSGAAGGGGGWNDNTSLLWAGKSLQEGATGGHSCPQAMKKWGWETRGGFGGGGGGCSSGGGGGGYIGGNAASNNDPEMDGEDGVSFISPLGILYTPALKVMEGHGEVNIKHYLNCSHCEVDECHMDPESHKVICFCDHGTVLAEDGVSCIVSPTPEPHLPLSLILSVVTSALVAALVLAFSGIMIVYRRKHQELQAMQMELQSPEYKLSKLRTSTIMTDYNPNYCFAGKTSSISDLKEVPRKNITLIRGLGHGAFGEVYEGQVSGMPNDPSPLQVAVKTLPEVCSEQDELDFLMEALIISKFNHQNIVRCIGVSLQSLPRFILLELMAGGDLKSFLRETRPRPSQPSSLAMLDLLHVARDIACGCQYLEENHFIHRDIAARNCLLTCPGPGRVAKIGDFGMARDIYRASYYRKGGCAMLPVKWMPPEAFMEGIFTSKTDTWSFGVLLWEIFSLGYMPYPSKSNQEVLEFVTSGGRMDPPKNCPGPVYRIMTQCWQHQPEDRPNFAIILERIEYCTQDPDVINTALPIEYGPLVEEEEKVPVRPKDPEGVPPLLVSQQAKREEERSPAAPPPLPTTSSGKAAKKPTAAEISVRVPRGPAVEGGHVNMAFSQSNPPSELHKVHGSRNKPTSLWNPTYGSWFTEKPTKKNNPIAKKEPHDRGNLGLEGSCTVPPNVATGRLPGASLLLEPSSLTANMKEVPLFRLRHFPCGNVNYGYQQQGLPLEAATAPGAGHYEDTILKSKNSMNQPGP

Regarding `O=C(c1ccc(-c2cnc3c(c2)N(Cc2c(F)ccc(F)c2Cl)CCN3)cc1)N1CCC[C@H]1CN1CCCC1` [Example 100, {4-[1-(2-Chloro-3,6-difluorobenzyl)-1,2,3,4-tetrahydropyrido[2,3-b]pyrazin-7-yl]phenyl}-((S)-2-((pyrrolidin-1-yl)methyl)pyrrolidin-1-yl)methanone], the pIC50 (usually the negative decadic logarithm of the IC50, by convention in mol/L) was 6.00 to 7.00 in series [1], above 7.00 in series [4] and at least 6.60 against NPM-ALK. The inhibition at 1 µM in series [2] and in series [3] was 0 to 25% each time. For the same molecule, the inhibition at 3 µM in series [2] and in series [3] was 0 to 25% in each case.

With `O=C(c1ccc(-c2cnc3c(c2)N(Cc2c(Cl)cccc2Cl)CCN3)cc1)N1CCC[C@H]1CN1CCCC1` [Example 164, {4-[1-(2,6-Dichlorobenzyl)-1,2,3,4-tetrahydropyrido[2,3-b]pyrazin-7-yl]phenyl}-{2-[(pyrrolidin-1-yl)methyl]pyrrolidin-1-yl}methanone], the figures for the negative-log IC50 (pIC50) (in series [1]; in series [4]; against NPM-ALK) were 5.00 to 6.00, above 7.00 and 6.30 to 6.60, respectively. Moreover, the inhibition at 1 µM in series [2] and in series [3] was 0 to 25% each time. The inhibition at 3 µM in series [2] and in series [3] was 0 to 25% in each case.

`O=C(c1ccc(-c2cnc3c(c2)N(Cc2cc(Cl)ccc2Cl)CCN3)cc1)N1CCC(N2CCCC2)CC1` [Example 160, {4-[1-(2,5-Dichlorobenzyl)-1,2,3,4-tetrahydropyrido[2,3-b]pyrazin-7-yl]phenyl}-(4-(pyrrolidin-1-yl)piperidin-1-yl)methanone]: the pIC50 in series [1] was 6.00 to 7.00; in series [4], above 7.00; against NPM-ALK it was at least 6.60. The inhibition (usually the drop in the measured response relative to a control, in per cent) at 1 µM in series [2] lay in the range of 0 to 25%; in series [3], 26 to 50%. The inhibition at 3 µM in series [2] was 0 to 25%; in series [3], 26 to 50%.

Turning to `CC(c1c(F)ccc(F)c1Cl)N1CCNc2ncc(-c3ccc(N4CCN(C)CC4)nc3)cc21` (stereo not shown) [Example 177, 1-[1-(2-Chloro-3,6-difluorophenyl)ethyl]-7-[6-(4-methylpiperazin-1-yl)pyridin-3-yl]-1,2,3,4-tetrahydropyrido[2,3-b]pyrazine], the results for the pIC50 (in series [1]; in series [4]; at NPM-ALK) were 5.00 to 6.00, above 7.00 and 6.30 to 6.60, respectively. Moreover, the inhibition at 1 µM lay within 0 to 25% in series [2] and 26 to 50% in series [3]. The values for the inhibition at 3 µM in series [2] and in series [3] were 0 to 25% and 26 to 50%, respectively.

Take `O=C(c1ccc(-c2cnc3c(c2)N(Cc2c(Cl)cccc2Cl)CCN3)cc1)N1CCC(N2CCCC2)CC1` [Example 163, {4-[1-(2,6-Dichlorobenzyl)-1,2,3,4-tetrahydropyrido[2,3-b]pyrazin-7-yl]phenyl}-(4-(pyrrolidin-1-yl)piperidin-1-yl)methanone]: the results for the pIC50 (in series [1]; in series [4]; against NPM-ALK) were 6.00 to 7.00, above 7.00 and 6.00 to 6.12, respectively. Also, the inhibition at 1 µM in series [2] and in series [3] was 0 to 25% each time. Moreover, the inhibition at 3 µM in series [2] was 0 to 25%; in series [3] it was 26 to 50%.

On to `O=C(c1ccc(-c2cnc3c(c2)N(Cc2cc(F)ccc2F)CCN3)cc1)N1CCC(N2CCCC2)CC1` [Example 66, {4-[1-(2,5-Difluorobenzyl)-1,2,3,4-tetrahydropyrido[2,3-b]pyrazin-7-yl]phenyl}-(4-(pyrrolidin-1-yl)piperidin-1-yl)methanone], for which the melting point (usually the temperature of the solid-liquid transition) lay in the range of 202 to 204 °C. Moreover, the pIC50 in series [1] was 5.00 to 6.00. In addition, the pIC50 in series [4] is above 7.00. The molecule further showed a pIC50 against NPM-ALK of at least 6.60.

Regarding `FC(F)(F)c1ccc(Cl)cc1CN1CCNc2ncc(-c3ccnc(N4CCNCC4)c3)cc21` [Example 198, 1-[5-Chloro-2-(trifluoromethyl)benzyl]-7-(2-piperazin-1-yl-pyridin-4-yl)-1,2,3,4-tetrahydro-pyrido[2,3-b]pyrazine], the melting point came to 189 °C. The pIC50 in series [1] is 6.00 to 7.00. Further, in series [4], the pIC50 is above 7.00. For the same molecule, the pIC50 on NPM-ALK is at least 6.60.

For the molecule `CN1CCN(c2cc(-c3cnc4c(c3)N(Cc3c(F)ccc(F)c3Cl)CCN4)ccn2)CC1` [Example 190, 1-(2-Chloro-3,6-difluorobenzyl)-7-[2-(4-methylpiperazin-1-yl)pyridin-4-yl]-1,2,3,4-tetrahydropyrido[2,3-b]pyrazine], the pIC50 in series [1] was 6.00 to 7.00; in series [4] it was above 7.00; against NPM-ALK, 6.12 to 6.30. For the same molecule, the inhibition at 1 µM in series [2] is 0 to 25%. Also, the inhibition at 3 µM in series [2] lay in the range of 0 to 25%.

In the case of `O=C(c1ccc(-c2cnc3c(c2)N(Cc2cc(Cl)ccc2Cl)C(=O)CN3)cc1)N1CCC(N2CCCC2)CC1` [Example 156, 1-(2,5-Dichlorobenzyl)-7-[4-(4-(pyrrolidin-1-yl)piperidine-1-carbonyl)phenyl]-3,4-dihydro-1H-pyrido[2,3-b]pyrazin-2-one], the melting point was above 200 °C. Further, in series [1], the pIC50 is 6.00 to 7.00. Moreover, the pIC50 in series [4] is above 7.00. For the same molecule, the pIC50 on NPM-ALK is 6.30 to 6.60.

In turn, `O=C(O)c1ccc(-c2cnc3c(c2)N(Cc2c(F)ccc(F)c2Cl)C(=O)CN3)cc1` [Example 6, 4-[1-(2-Chloro-3,6-difluorobenzyl)-2-oxo-1,2,3,4-tetrahydropyrido[2,3-b]pyrazin-7-yl]benzoic acid] returned a melting point above 300 °C. Besides, the pIC50 in series [1] was 4.00 to 5.00. For the same molecule, the pIC50 in series [4] is 6.00 to 7.00. In addition, the inhibition at 1 µM on NPM-ALK (NPM-ALK, 1 μM compound, read-out: ALK Cellular Activity Inhibition Score at 1 μM) was 0 to 25%.

As to `O=C(c1ccc(-c2cnc3c(c2)N(Cc2cc(Cl)ccc2C(F)(F)F)CCN3)cc1)N1CCC(N2CCCC2)CC1` [Example 117, {4-[1-(5-Chloro-2-trifluoromethylbenzyl)-1,2,3,4-tetrahydropyrido[2,3-b]pyrazin-7-yl]phenyl}-(4-(pyrrolidin-1-yl)piperidin-1-yl)methanone], the pIC50 is 5.00 to 6.00 in series [1], above 7.00 in series [4] and at least 6.60 against NPM-ALK. The inhibition at 1 µM in series [3] was in the range of 0 to 25%. Moreover, the inhibition at 3 µM in series [3] was 0 to 25%.
